Source: the supplement of paper PMC10307832

Experiments:
Assay in all cases: relative viability (nuclei count vs DMSO), 5 days (fraction); higher = more cells survive
[1] = compound: C=CC(=O)N1CCC[C@@H](n2nc(-c3ccc(Oc4ccccc4)cc3)c3c(N)ncnc32)C1 [Ibrutinib]
In short: (§1)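 Lung cancer cell lines received five library-drug doses (not always all listed) spaced by √10, pinned on vehicle-anchored 1536-well plates after an overnight stay at 37 °C. Five days later, with no medium change, nuclei were Hoechst-stained, imaged at 4× and counted with MetaXpress. Viability is treated-well nuclei relative to vehicle-well nuclei, as a median across plates. Passing plates had control CV below 25% and at least one doubling.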

[2] = compound: C=CCc1cccc(/C=N/NC(=O)CN2CCN(Cc3ccccc3)CC2)c1O [PAC-1]
In short: as §1

[3] = compound: C=CC(=O)N1CCC[C@@H](n2nc(-c3ccc(Oc4ccccc4)cc3)c3c(N)ncnc32)C1 [Ibrutinib] + Cc1cc(Nc2cc(N3CCN(C)CC3)nc(Sc3ccc(NC(=O)C4CC4)cc3)n2)n[nH]1 [Tozasertib] (partner 0.1 µM)
In short: (§2)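 Cells from lung cancer lines were seeded into 1536-well plates and, one day later, dosed by pin tool. Treatments were either a single drug or a fixed dose of an anchor drug with five library-drug doses (not always all listed) in √10 steps. After 5 days, nuclei were stained in a one-step fixation (final 0.05% Triton X-100, 1% formaldehyde, 1 ug/ml Hoechst) and counted on 4× images, and relative viability is the treated-to-vehicle nuclei ratio, as the median of duplicate plates.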

[4] = compound: C=CC(=O)N1CCC[C@@H](n2nc(-c3ccc(Oc4ccccc4)cc3)c3c(N)ncnc32)C1 [Ibrutinib] + O=C(c1cc(Cc2n[nH]c(=O)c3ccccc23)ccc1F)N1CCN(C(=O)C2CC2)CC1 [Olaparib] (partner 8 µM)
In short: as §2

Cell Line | relative viability ([1]; 0.005 µM) | relative viability ([1]; 0.01581 µM) | relative viability ([1]; 0.05 µM) | relative viability ([1]; 0.1581 µM) | relative viability ([1]; 0.5 µM) | relative viability ([2]; 0.02 µM) | relative viability ([2]; 0.06325 µM) | relative viability ([2]; 0.2 µM) | relative viability ([2]; 2 µM) | relative viability ([3]; first compound 0.005 µM) | relative viability ([3]; first compound 0.01581 µM) | relative viability ([3]; first compound 0.05 µM) | relative viability ([3]; first compound 0.1581 µM) | relative viability ([3]; first compound 0.5 µM) | relative viability ([4]; first compound 0.005 µM) | relative viability ([4]; first compound 0.01581 µM) | relative viability ([4]; first compound 0.05 µM) | relative viability ([4]; first compound 0.1581 µM) | relative viability ([4]; first compound 0.5 µM)
NCI-H1666 | 1.03 | 0.984 | 0.851 | 0.965 | 0.867 | 1.01 | 1.01 | 1 | 1.04 | 0.628 | 0.59 | 0.602 | 0.583 | 0.536 | 0.844 | 0.672 | 0.772 | 0.694 | 0.703
NCI-H1734 | 0.849 | 0.922 | 0.952 | 1.03 | 0.999 | 0.936 | 1.01 | 0.942 | 1.02 | 0.272 | 0.245 | 0.299 | 0.257 | 0.257 | 0.57 | 0.629 | 0.788 | 0.67 | 0.592
NCI-H1755 | 0.988 | 1.03 | 1.02 | 0.994 | 0.969 | 1.02 | 0.958 | 0.963 | 0.995 | 0.628 | 0.574 | 0.695 | 0.613 | 0.528 | 0.921 | 0.886 | 0.88 | 0.926 | 0.894
NCI-H1793 | – | 0.831 | 0.732 | 0.631 | 0.538 | 0.847 | 0.934 | 0.872 | 1.01 | – | 0.288 | 0.254 | 0.462 | 0.208 | 0.669 | 0.562 | 0.582 | 0.833 | 0.4
NCI-H1915 | 0.96 | 0.971 | 1.01 | 0.978 | 1.05 | 0.955 | 0.981 | 0.934 | 1.07 | 0.498 | 0.439 | 0.447 | 0.485 | 0.428 | 0.283 | 0.256 | 0.257 | 0.281 | 0.241
NCI-H1944 | 0.887 | 0.851 | 0.858 | 0.772 | 0.832 | 0.964 | 0.947 | 0.902 | 1.02 | 0.247 | 0.217 | 0.21 | 0.24 | 0.198 | 0.411 | 0.404 | 0.413 | 0.387 | 0.359
NCI-H1975 | 0.906 | 0.781 | 0.827 | 0.91 | 0.419 | 0.97 | 0.957 | 0.994 | 1.08 | 0.82 | 0.688 | 0.695 | 0.806 | 0.403 | 0.886 | 0.775 | 0.688 | 0.802 | 0.482
NCI-H1993 | 0.617 | 0.822 | – | 0.733 | 0.61 | 0.911 | 0.986 | 0.891 | 0.963 | 0.594 | 0.529 | 0.541 | 0.566 | 0.524 | 0.849 | 0.939 | 1.36 | 1.15 | 0.836
